Each structure is given as a SMILES string. “Also recorded” adds a separate entry of the source.

The test system of series [1] is Jurkat cells. Briefly: Flow cytometry time course of uptake (Example 12). The series is classed as cell-based, human. The settings on record: 200 nM. As for the experimental part:
FIG. 12: Time course of uptake for compounds 124, 126, and 132 at 200 nM after 5, 30 or 60 minute incubation with Jurkat cells. Mean fluorescent intensities (MFI). 1,000 cells were sorted by FACS. Bars represent mean±SD. Results represents a single experiment done in triplicate.
Materials and methods: For this study, 7.7×10^5 Jurkat cells were centrifuged for 5 minutes at 2500 RPM. The supernatant was removed and the cells were diluted in RPMI media (supplemented with 1% FBS+1% penicillin-streptomycin) to 400 cells/μL. Next, 28 μL of 100 μM stock solutions from compound 124, 126, or 132 were diluted with 6972 μL of RPMI media (supplemented with 1% FBS+1% penicillin-streptomycin) to give a 400 nM solution. Following this, 250 μL of conjugate solutions (giving a 200 nM final concentration) and 250 μL of cell suspensions were then added to each well in a 96 well plate. In addition, 250 μL of media only was added to the DMSO control wells. Incubation was carried out for 5, 30 and 60 minutes at 37 °C in triplicate wells for each compound and time point.
After incubation, cells were centrifuged for 1.5 minutes at 5000 RCF. Supernatant was removed and the cell pellet re-suspended in 200 μL fresh RPMI media, transferred to 96 well-plate and each cell suspension analysed by flow cytometry. Flow cytometry results represent the mean of the fluorescence intensities (in arbitrary units) measured for cells sorted in every sample.
(Flow cytometry measures light scatter and fluorescence of single cells or particles in a stream.)

Series [2] has as its system melanoma tumours (NZM11 cells). Briefly: Whole body fluorescent cryo-imaging, tumour targeting (Example 13). The settings on record: 0.7 mg/kg i.v., 1 hour post dosing. The series is classed as in vivo, mouse. The procedure: (§1) Materials and methods: Compound 124 was supplied as a 10 mM stock solution in DMSO. NZM011 cells were grown in AMEM, 5% FBS, 5 μg/mL insulin, 5 μg/mL transferrin, 5 ng/mL sodium selenite at 37 °C with 5% O2, 90% N2 5% CO2. The study was performed in 6-week-old male NIH-III athymic mice (strain code 201). Work was carried out by Ichor Biosciences La Fayette NY, USA. Mice were injected on one flank with 5×10^6 NZM11 cells in a 50:50 matrigel:media suspension with a 22G needle. When tumours reach over 500 mm3 the mice were administered intravenously (tail vein) with a solution of compound 124 in phosphate buffered saline at a dose of 0.7 mg/kg. The mice were euthanized at 1 hour or 6 hours post dosing and frozen for cryoimaging. A control mouse received no tumour cells or compound 124 and was euthanized and frozen for cryoimaging at the same time as the treated mice.
(§2) Processed animals were cryoimaged imaged at BioInvision in Cleveland Ohio. Whole animal was sectioned at 40 microns and imaged using brightfield at fluorescent modes (503 nm). In-plane pixel size 10 microns. Mouse #1 with tumour on one flank at 500 mm3, treated with compound 124 (0.7 mg/kg) and euthanised 1 hour post treatment. Mouse #6 no tumour or compound 124 treatment euthanised on same day.

The nature of series [3]: Whole body fluorescent cryo-imaging, tissue distribution (Example 13). The series is classed as in vivo, mouse. The settings on record: 0.7 mg/kg i.v., 1 hour post dosing. The procedure:
as §1, §2

On to `CC1=CC(C)=[N+]2C1=Cc1ccc(CCCn3cc(CCNC(=O)/C=C/NC(=O)[C@H](O)C(C)(C)CO)nn3)n1[B-]2(F)F` [Compound 124], for which the “uptake, times higher than DMSO control” value in series [1] (5 minutes) is given as 4 times. In series [1] (30 minutes), the “uptake increase compared to DMSO control” value was “ten”. For the same molecule, in series [1] (60 minutes), the “uptake increase compared to DMSO control” value is recorded as “fourteen”. Further, in series [1] (5, 30, 60 minutes), the “uptake, in words” value was “highest uptake at every timepoint; also recorded: selective uptake”. In addition, the “124-specific fluorescence in tumour” value in series [2] was 124-specific fluorescence was also seen in the region of the implanted tumour and Specific 124-fluorescence was observed in the region of the tumour and specific green fluorescence from compound 124 was seen in the proximity of the tumour and specifically targeted and bound to tumour in vivo. Moreover, in series [3], the “124-specific fluorescence in bladder” value is on record as “strong 124-specific fluorescence; also recorded: Specific 124-fluorescence was observed; also recorded: strong fluorescence observed in the bladder; also recorded: Fluorescence specific for compound 124 was seen”; the “124-specific fluorescence in kidneys” value is 124-specific fluorescence was observed in the kidney medulla and kidneys (mainly renal medulla); the “fluorescence in any other tissues” value is reported as “No fluorescence”; the route of excretion result is “renal clearance; also recorded: renal route”.

The record behind these values is patent US20260364186A1, “Chemical Conjugates, Compositions, and Methods of Preparation and Use Thereof” (Transfection Holdings Limited, priority 2022, published 2026).
